A short description of this data set: Zeta potential of emulsion surface. Format: physicochemical. As to conditions: 0.002% CKC in emulsion. The text has this: Thus in preferred embodiments, micellar compositions of the present invention have a positive zeta potential. As known in the art, the zeta potential is a measure of the magnitude of repulsion or attraction between particles (Washington, Adv. Drug Deliv. Reviews, 1996, 20:131-145). The Zeta potential is not measurable directly but it can be calculated using theoretical models and an experimentally-determined electrophoretic mobility or dynamic electrophoretic mobility. As known in the art, electrophoretic mobility can be determined using micro-electrophoresis or electrophoretic light scattering.
All the eye drops were supplied by Novagali Pharma (Evry, France) and were sterile with physiological pH and osmolality. The present Applicants chose to compare 0.02% BAK to 0.002% CKC since these two QAC concentrations confer equivalent positive charge to the emulsion surface (zeta potential around 20 mV).

Take `CCCCCCCCCCCCCCCC[N+](C)(C)Cc1ccccc1` [Cetalkonium chloride, cetalkonium chloride]: the zeta potential result is “around 20 mV”.
